Values joined by “and” are separate entries in the source; they are usually repeats but may differ in a detail not shown here. Equal entries are not always repeated.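 How tested: cells in 96-well plates exposed to compound for 48 hours at five concentrations. Here, GI50 denotes the concentration required for 50% inhibition of growth. At the TGI there is no net growth.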 Some results are limits rather than exact numbers.

Test systems include CAKI-1 renal; EKVX NSCLC; HCC-2998 colon; M14 melanoma; MDA-MB-231 breast; MDA-MB-435; RPMI-8226 leukemia; SK-MEL-2 melanoma; SNB-19 CNS; T-47D breast.
What all share (assay): growth of human tumour cells (NCI), 48 h

As for `CN(CCN)[C@H](CSSC[C@@H](c1ccccc1O)N(C)CCN)c1ccccc1O`, the TGI came out at 25.8 µM in the experiment with CAKI-1 renal; 23.9 µM in the experiment on EKVX NSCLC; 25.6 µM with HCC-2998 colon; 33.5 µM in the experiment with M14 melanoma; 26.5 µM in the experiment with MDA-MB-231 breast; 42.8 µM with MDA-MB-435. The TGI amounted to 43.2 µM in the experiment on RPMI-8226 leukemia, 38.9 µM in the experiment on SK-MEL-2 melanoma, 26.2 µM with SNB-19 CNS and 48.3 µM with T-47D breast.

For `Cc1ccc(C2=CC(=O)/C(=C\C(=O)c3ccc(Br)cc3)O2)c(C)c1`, the TGI is 9.79 µM in the experiment with CAKI-1 renal; more than 67.7 µM in the experiment on EKVX NSCLC; 25.4 µM with HCC-2998 colon; 35.3 µM in the experiment with M14 melanoma; 26.8 µM in the experiment with MDA-MB-231 breast; 38.7 µM in the experiment on MDA-MB-435. The TGI in the experiment with RPMI-8226 leukemia was 10 µM; in the experiment on SK-MEL-2 melanoma, more than 100 µM; in the experiment with SNB-19 CNS it was more than 49.1 µM; with T-47D breast it was 43.1 µM.

On to `NCCCN(CCCCN(CCCN)CCCc1ccccc1)CCCc1ccccc1`, for which the TGI with CAKI-1 renal came to 4.94 µM; in the experiment with EKVX NSCLC, 12.6 µM; in the experiment with HCC-2998 colon, 2.99 µM; in the experiment on M14 melanoma, 3.57 µM; in the experiment on MDA-MB-231 breast, 4.39 µM; with MDA-MB-435 it was 3.27 µM. The TGI in the experiment with RPMI-8226 leukemia was 6.15 µM; with SK-MEL-2 melanoma it was 3.25 µM; in the experiment on SNB-19 CNS, 6.62 µM; in the experiment with T-47D breast it was 23.5 µM.

For the molecule `CCCC(=O)Nc1cc(C(=O)N2C[C@H]3C[C@@]34C2=CC(=O)c2[nH]cc(C)c24)n(COC)c1`, the GI50 in the experiment with CAKI-1 renal is 0.175 µM; in the experiment on EKVX NSCLC, 0.421 µM; in the experiment with HCC-2998 colon, 0.14 µM; with M14 melanoma, 0.167 µM; in the experiment on RPMI-8226 leukemia, 0.176 µM; in the experiment with SK-MEL-2 melanoma, 0.13 µM. Also, the GI50 in the experiment with SNB-19 CNS is 0.326 µM. The TGI with CAKI-1 renal was 1.03 µM and 0.52 µM; in the experiment on EKVX NSCLC, 3.37 µM and 2.29 µM; in the experiment with HCC-2998 colon, 0.361 µM and 0.336 µM; in the experiment with MDA-MB-231 breast, 3 µM; in the experiment on MDA-MB-435, 1.6 µM and 0.537 µM; with RPMI-8226 leukemia, 2.84 µM and 0.776 µM. Besides, the TGI is 29.1 µM and 13 µM in the experiment on SNB-19 CNS; 1.49 µM with T-47D breast.

Take `CCOC(=O)C1=C(O)CC(=O)N=C1N1CCCC1`: the TGI with CAKI-1 renal, with EKVX NSCLC, in the experiment with HCC-2998 colon, in the experiment on M14 melanoma, in the experiment on MDA-MB-231 breast and in the experiment on MDA-MB-435 was more than 100 µM throughout. For the same molecule, the TGI in the experiment with RPMI-8226 leukemia, with SK-MEL-2 melanoma, with SNB-19 CNS and with T-47D breast was more than 100 µM each time.

Turning to `CCOC(=O)Cc1c(C(=O)OCC)[n+](=O)c2cc(Cl)c(Cl)cc2n1[O-]`, the TGI was determined as 11.1 µM in the experiment with CAKI-1 renal; 11.4 µM in the experiment with EKVX NSCLC; 5.1 µM in the experiment on HCC-2998 colon; 5.98 µM in the experiment on M14 melanoma; 7.02 µM in the experiment with MDA-MB-231 breast; 9.03 µM with MDA-MB-435. For the same molecule, the TGI amounted to 2.18 µM with RPMI-8226 leukemia, 7.73 µM in the experiment on SK-MEL-2 melanoma, 11.9 µM with SNB-19 CNS and 6.76 µM in the experiment on T-47D breast.

Regarding `Cc1nn2c(=O)c([N+](=O)[O-])c(/C=C/c3ccc(F)cc3)nc2s1`, the TGI was determined as 27.9 µM with CAKI-1 renal; 22.5 µM in the experiment with EKVX NSCLC; 16.4 µM in the experiment on HCC-2998 colon; 16.4 µM in the experiment with M14 melanoma; 26.8 µM with MDA-MB-231 breast; 10.5 µM in the experiment on MDA-MB-435. Further, the TGI in the experiment on RPMI-8226 leukemia was 19.7 µM; in the experiment on SK-MEL-2 melanoma, 19.3 µM; in the experiment with SNB-19 CNS, 23.2 µM; in the experiment with T-47D breast, 19.3 µM.

For the molecule `CCCOC(=O)c1cc(O)c(O)c(O)c1`, the TGI in the experiment with CAKI-1 renal is more than 100 µM; in the experiment on EKVX NSCLC, more than 100 µM; in the experiment on HCC-2998 colon, more than 100 µM; with M14 melanoma, more than 100 µM; with MDA-MB-231 breast it was more than 100 µM; in the experiment with MDA-MB-435, 81.1 µM. The TGI with RPMI-8226 leukemia, with SK-MEL-2 melanoma, with SNB-19 CNS and with T-47D breast was more than 100 µM each time.

Consider `CC1(C)N=C(C(N)=O)c2[nH]cnc2N1`, for which the TGI with CAKI-1 renal, in the experiment with EKVX NSCLC, in the experiment on HCC-2998 colon, in the experiment with M14 melanoma, with MDA-MB-231 breast and with MDA-MB-435 was more than 100 µM each time. The TGI in the experiment on RPMI-8226 leukemia, with SK-MEL-2 melanoma, with SNB-19 CNS and in the experiment on T-47D breast was more than 100 µM throughout.

`COC(=O)CN1CCN(c2cccc3c2CCCC3)CC1`: the TGI in the experiment with CAKI-1 renal is more than 100 µM; in the experiment with EKVX NSCLC it was more than 100 µM; in the experiment on HCC-2998 colon, 85.3 µM; in the experiment with M14 melanoma, more than 100 µM; with MDA-MB-231 breast, more than 100 µM; in the experiment with MDA-MB-435, more than 100 µM. Moreover, the TGI with RPMI-8226 leukemia is 85.8 µM; in the experiment on SK-MEL-2 melanoma, more than 100 µM; with SNB-19 CNS, more than 100 µM; in the experiment on T-47D breast, more than 100 µM.

As for `Cc1nc2ccc(NCCN(C)C)c3c(=O)c4ccccc4n1c23`, the TGI in the experiment with CAKI-1 renal turned out to be 13.8 µM; in the experiment with EKVX NSCLC, 14.2 µM; with HCC-2998 colon, 16.7 µM; in the experiment with M14 melanoma, 16.4 µM; in the experiment with MDA-MB-231 breast it was 5.8 µM; in the experiment with MDA-MB-435, 16.1 µM. Also, the TGI is 26.2 µM in the experiment with RPMI-8226 leukemia, 18.8 µM in the experiment with SK-MEL-2 melanoma, 47.8 µM in the experiment with SNB-19 CNS and 39.7 µM in the experiment with T-47D breast.

On to `COC(=O)/C=C(C)/C=C\COC1CCCCO1` (stereo not given), for which the TGI in the experiment on CAKI-1 renal, in the experiment with EKVX NSCLC, in the experiment with HCC-2998 colon, in the experiment on M14 melanoma, in the experiment with MDA-MB-231 breast and in the experiment on MDA-MB-435 was more than 100 µM throughout. For the same molecule, the TGI with RPMI-8226 leukemia, in the experiment on SK-MEL-2 melanoma, in the experiment on SNB-19 CNS and in the experiment on T-47D breast was more than 100 µM in each case.

`O=c1cc(NNc2cccc3ccccc23)[nH]c(=O)[nH]1`: the TGI in the experiment on CAKI-1 renal was found to be 28.5 µM; with EKVX NSCLC, 27.7 µM; in the experiment on HCC-2998 colon, 35.6 µM; with M14 melanoma, 29.8 µM; in the experiment on MDA-MB-231 breast it was 26.2 µM; in the experiment with MDA-MB-435, 30.7 µM. The TGI in the experiment on RPMI-8226 leukemia was 33.3 µM; with SK-MEL-2 melanoma, 28.4 µM; with SNB-19 CNS it was 29 µM; in the experiment with T-47D breast it was 29.6 µM.

On to `CC(C)=CCC[C@@H](C)C1=C(O)C(N[C@H](C)c2ccccc2)=C(C)C(=O)C1=O`, for which the TGI was 46.9 µM in the experiment with CAKI-1 renal; more than 100 µM in the experiment on EKVX NSCLC; 31.3 µM with HCC-2998 colon; more than 31.7 µM with M14 melanoma; 35.6 µM in the experiment with MDA-MB-231 breast; more than 62.3 µM with MDA-MB-435. The TGI is 22.2 µM in the experiment with RPMI-8226 leukemia, 29.3 µM in the experiment on SK-MEL-2 melanoma, more than 100 µM in the experiment with SNB-19 CNS and 24.8 µM in the experiment on T-47D breast.

`NC1=Nc2cc(C(F)(F)F)ccc2Sc2nc3ccccc3n21`: the TGI was more than 100 µM in the experiment with CAKI-1 renal; more than 100 µM in the experiment on EKVX NSCLC; more than 100 µM in the experiment with HCC-2998 colon; more than 43.2 µM in the experiment with M14 melanoma; more than 100 µM in the experiment on MDA-MB-231 breast; more than 100 µM with MDA-MB-435. For the same molecule, the TGI in the experiment with RPMI-8226 leukemia, with SK-MEL-2 melanoma, in the experiment with SNB-19 CNS and with T-47D breast was more than 100 µM in each case.

Take `CO[C@@]12C[C@H](CNC(=O)c3ccc[nH]3)O[C@@H]1NC(=O)N2`: the TGI in the experiment on CAKI-1 renal, in the experiment with EKVX NSCLC, in the experiment with HCC-2998 colon, in the experiment on M14 melanoma, with MDA-MB-231 breast and with MDA-MB-435 was more than 100 µM throughout. The TGI in the experiment on RPMI-8226 leukemia, in the experiment on SK-MEL-2 melanoma, with SNB-19 CNS and in the experiment with T-47D breast was more than 100 µM throughout.

As to `CC(=O)c1csc2c1C(=O)c1ccccc1C2=O`, the TGI is 18.2 µM in the experiment on CAKI-1 renal; 18.6 µM with EKVX NSCLC; 3.2 µM in the experiment with HCC-2998 colon; 2.65 µM with M14 melanoma; more than 62.9 µM with MDA-MB-231 breast; 3.97 µM with MDA-MB-435. Besides, the TGI in the experiment with RPMI-8226 leukemia came out at 89.9 µM; in the experiment with SK-MEL-2 melanoma, 10.6 µM; in the experiment on SNB-19 CNS, 5.06 µM; with T-47D breast it was 50.8 µM.

Take `CC1=NN(c2nc(N)nc(CO)n2)C(C)(C)C1`: the TGI in the experiment on CAKI-1 renal, in the experiment with EKVX NSCLC, in the experiment with HCC-2998 colon, with M14 melanoma, in the experiment on MDA-MB-231 breast and in the experiment with MDA-MB-435 was more than 100 µM in each case. The TGI in the experiment on RPMI-8226 leukemia, with SK-MEL-2 melanoma, in the experiment with SNB-19 CNS and in the experiment with T-47D breast was more than 100 µM each time.

With `CN(C)C(=O)C(F)(F)C(c1ccccc1Br)C1C(=O)N(C)C(=O)N(C)C1=O` (stereo not given), the TGI in the experiment on CAKI-1 renal, with EKVX NSCLC, in the experiment on HCC-2998 colon, with M14 melanoma, with MDA-MB-231 breast and in the experiment with MDA-MB-435 was more than 100 µM each time. The TGI with RPMI-8226 leukemia, in the experiment on SK-MEL-2 melanoma, in the experiment with SNB-19 CNS and in the experiment with T-47D breast was more than 100 µM each time.

For `CCOC(=O)N1c2ccccc2C(C)=CC(C)C1C` (stereo not given), the TGI in the experiment with CAKI-1 renal was 74.3 µM; with EKVX NSCLC, 99 µM; in the experiment with HCC-2998 colon it was more than 100 µM; in the experiment with M14 melanoma, 80 µM; in the experiment on MDA-MB-231 breast it was 78.4 µM; with MDA-MB-435, 15.8 µM. The TGI in the experiment on RPMI-8226 leukemia, in the experiment with SK-MEL-2 melanoma, in the experiment with SNB-19 CNS and in the experiment with T-47D breast was more than 100 µM each time.

The values above are taken from PubChem BioAssay (NCI).
